Assay results: BindingDB's records for doi:10.1021/jm00018a028 (University of Nebraska Medical Center, 1995)

Experiment: Ability to induce shape change (polarization) in human polymorphonuclear leukocytes (PMN)

Compound | EC50 [µM]
CC(C)C[C@H](NC(=O)[C@@H]1CCCN1C(=O)[C@H](C)NC(=O)[C@H](CC(=O)O)NC(=O)[C@H](CCCCN)NC(=O)[C@H](Cc1ccccc1)NC(=O)[C@H](CO)NC(=O)[C@@H](N)Cc1ccc(O)cc1)C(=O)NCC(=O)N[C@@H](CCCNC(=N)N)C(=O)O | 15.8
H-YSFKDMQLGR-OH [Tyr-Ser-Phe-LyS-Asp-Met-Glu-Leu-Gly-Arg] | 37
CSCC[C@H](NC(=O)[C@H](CC(=O)O)NC(=O)[C@H](CCCCN)NC(=O)[C@H](Cc1ccccc1)NC(=O)[C@H](CO)NC(=O)[C@@H](N)Cc1ccc(O)cc1)C(=O)N1CCC[C@H]1C(=O)N[C@@H](CC(C)C)C(=O)NCC(=O)N[C@@H](CCCNC(=N)N)C(=O)O | 5
H-YSFKDMQPGR-OH | 22
H-YSFKGLLLGR-OH | 0.3
